Measurements as given in patent publication US4866090A, “Novel HMG-CoA reductase inhibitors” (Merck & Co., Inc., priority 1988, dated 1989).

Molecular target: T1, HMG-CoA reductase (Rattus norvegicus, UniProt P51639)
T1 sequence (P51639 1-887): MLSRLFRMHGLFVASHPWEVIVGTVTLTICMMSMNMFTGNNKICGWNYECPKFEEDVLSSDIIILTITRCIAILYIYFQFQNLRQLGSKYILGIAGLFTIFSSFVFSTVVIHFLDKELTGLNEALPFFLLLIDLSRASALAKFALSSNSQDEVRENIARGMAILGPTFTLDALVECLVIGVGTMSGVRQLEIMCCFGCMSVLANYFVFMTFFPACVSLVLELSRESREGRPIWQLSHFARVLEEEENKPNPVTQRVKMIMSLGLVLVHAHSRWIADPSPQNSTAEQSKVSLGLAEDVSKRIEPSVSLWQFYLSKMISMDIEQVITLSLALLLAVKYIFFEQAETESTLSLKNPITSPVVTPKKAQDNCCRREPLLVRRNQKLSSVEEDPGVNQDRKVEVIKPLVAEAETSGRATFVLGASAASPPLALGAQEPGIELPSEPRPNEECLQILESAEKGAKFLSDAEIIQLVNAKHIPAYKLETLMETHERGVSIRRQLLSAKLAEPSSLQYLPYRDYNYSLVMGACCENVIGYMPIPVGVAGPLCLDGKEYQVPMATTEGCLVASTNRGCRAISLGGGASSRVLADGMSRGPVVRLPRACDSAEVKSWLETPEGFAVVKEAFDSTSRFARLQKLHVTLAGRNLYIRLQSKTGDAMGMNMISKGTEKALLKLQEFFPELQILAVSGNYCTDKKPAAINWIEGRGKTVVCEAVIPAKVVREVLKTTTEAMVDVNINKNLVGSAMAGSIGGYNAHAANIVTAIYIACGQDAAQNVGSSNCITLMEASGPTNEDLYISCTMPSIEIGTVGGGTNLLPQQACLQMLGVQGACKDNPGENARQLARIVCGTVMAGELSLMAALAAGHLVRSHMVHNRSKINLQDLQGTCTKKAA
Assay: intrinsic HMG-CoA reductase inhibition, in vitro protocol of J. Med. Chem., 28, p. 347-358 (1985)
Format: biochemical
Details: IC50 of test compound compared with that of compactin determined simultaneously; compactin = 100
Experimental: The intrinsic HMG-CoA reductase inhibition activity of the claimed compounds is measured in the in vitro protocol published in J. Med. Chem., 28, p. 347-358 (1985).
For estimation of relative inhibitory potencies, compactin (i.e., mevastatin) was assigned a value of 100 and the IC50 value of the test compound was compared with that of compactin determined simultaneously in the published in vitro protocol.

Relative Potency | SMILES
170 | CCC(C)(C)C(=O)O[C@H]1CC2(CC2)C[C@@H]2CC[C@H](C)[C@H](CC[C@@H]3C[C@@H](O)CC(=O)O3)[C@H]21 [1,1-dimethylpropyl --CH2 CH2 --]
111 | CCC(C)(C)C(=O)O[C@H]1CC(C)(C)C[C@@H]2CC[C@H](C)[C@H](CC[C@@H]3C[C@@H](O)CC(=O)O3)[C@H]21 [1,1-dimethylpropyl CH3 CH3, 6(R)-[2-(8(S)-(2,2-Dimethylbutyryloxy)-2(S),6,6-trimethyl-1,2,3,4,4a(S),5,6,7,8,8a(S)-decahydronaphthyl-1(S)]ethyl]-4(R) hydroxy-3,4,5,6-tetrahydro-2H pyran-2-one]
